Laboratory results published in US7244724B2, “Pyrrolobenzodiazepines” (United States of America, Represented by the Secretary, …, priority 2003, dated 2007).
pIC50: −log10 of the molar value.

Columns and labels:
[1] = system: K562 human chronic myeloid leukaemia cells; test: K562 assay (MTT cytotoxicity); type: cell-based; conditions: 96 h, 4 days incubation, n=2
Protocol: An initial stock of compound (in 0.006% DMSO) was used to generate a 1:3 dilution series ranging from 600 nM to 30 pM be the sequential addition of 40 μL compound to 80 μL of solvent (0.006% DMSO in sterile H2O). 10 μL of each point of the dilution range was transferred to a 96 well assay plate (Nunc, Cat. No. 163320) to generate four replica points per compound concentration. K562 human chronic myeloid leukaemia cells were maintained in RPM1 1640 medium supplemented with 10% foetal calf serum and 2 mM glutamine at 37° C. in a humidified atmosphere containing 5% CO2. 190 μL of a 5×10^4 cell solution was added to each well of the assay plate using a Matrix Wellmate (Apogent Discoveries), resulting in a total of 9.5×10^3 cells/well. Working compound concentrations therefore ranged from 30 nM to 1.5 pM. Plates were then kept in the dark at 37° C. in a humidified atmosphere containing 5% CO2. The assay is based on the ability of viable cells to reduce a yellow soluble tetrazolium salt, 3-(4,5-dimethylthiazol-2-yl)-2,5-diphenyl-2H-tetrazolium bromide (MTT, Aldrich-Sigma), to an insoluble purple formazan precipitate. […] The optical density was then read at a wavelength of 540 nm on a Fusion plate reader (Perkin Elmer). […]

[2] = Stability in d6-DMSO, d4-MeOH and D2O by 1H NMR (Study 4); type: physicochemical
Protocol: Samples of SJG-720 (˜3 mg) were dissolved in d6-DMSO, D2O and d4-MeOH (Cambridge Isotopes) and transferred to separate NMR tubes (Wilmad, 5 mm). ^1H NMR spectra were obtained on a Bruker Avance 400 MHz NMR spectrophotometer (typically 64 scans). ^13C and DEPT (Distortionless Enhancement through Polarized Transfer) experiments were performed on these samples using the same instrument at the appropriate field strength (100 MHz).
NMR spectra were recorded, as described above, after the following time intervals: • d6-DMSO, 1 hr, 8 days. • D2O, 3 hrs, 8 days. • d4-MeOH, 10 minutes, 3 days. Additional Studies
NMR experiments were carried out on SJG-136 in its carbinolamine forms. […] However, strong signals corresponding to the kinetic and thermodynamic carbinolamine forms can be observed when the sample is analysed in d6-DMSO. These gradually disappear from the spectra over a period of about 24 hours when the imine form becomes the predominant species.
Samples of the bisulphite adduct SJG-720 dissolved in d6-DMSO and D2O were stored at room temperature for over a period of 7 days and then analysed by ^1H NMR spectroscopy. […] In addition, a sample of SJG-720 stored at room temperature in d4-MeOH for over 3 days was also analysed by ^1H NMR.

SMILES: C=C1C[C@H]2C=Nc3cc(OCCCOc4cc5c(cc4OC)C(=O)N4CC(=C)C[C@H]4C=N5)c(OC)cc3C(=O)N2C1 [SJG-136]
- pIC50 [1]: > 8.00
- Interconversion of carbinolamine forms to imine ([2]; CDCl3 or CD3CN): revert to the imine form immediately
- Period over which carbinolamine form signals disappear and the imine form becomes predominant ([2]; carbinolamine forms in d6-DMSO): about 24 hours

SMILES: C=C1C[C@H]2C(S(=O)(=O)[O-])Nc3cc(OCCCOc4cc5c(cc4OC)C(=O)N4CC(=C)C[C@H]4C(S(=O)(=O)[O-])N5)c(OC)cc3C(=O)N2C1.[Na+].[Na+] (stereo partly drawn) [SJG-720, 1,1′[[(Propane-1,3-diyl)dioxy]bis(11aS)-11-sulpho-7-methoxy-2-methylidene-1,2,3,10,11,11a-hexahydro-5H-pyrrolo[2,1-c][1,4-benzodiazepin-5-one]] sodium salt]
- Stability in D2O (1H NMR spectrum change) ([2]; D2O, room temperature, over 7 days): no appreciable hydrolysis had occurred
- Stability in d4-MeOH (interconversion to carbinolamine methyl ether) ([2]; d4-MeOH, room temperature, over 3 days): interconversion to the carbinolamine methyl ether from was not observed
- Stability in d6-DMSO (reversion to parent imine) ([2]; d6-DMSO, room temperature, over 7 days): complete absence of parent imine SJG-136 signals
